Consider 30 compounds from patent publication US10189841B2, “Purinones as ubiquitin-specific protease 1 inhibitors” (Forma Therapeutics, Inc., priority 2015, dated 2019).

Sequence of USP1 (construct USP1 (I-785, GG670, 671AA)/UAF1 (I-677)-Flag) (O94782 whole entry G670A/G671A): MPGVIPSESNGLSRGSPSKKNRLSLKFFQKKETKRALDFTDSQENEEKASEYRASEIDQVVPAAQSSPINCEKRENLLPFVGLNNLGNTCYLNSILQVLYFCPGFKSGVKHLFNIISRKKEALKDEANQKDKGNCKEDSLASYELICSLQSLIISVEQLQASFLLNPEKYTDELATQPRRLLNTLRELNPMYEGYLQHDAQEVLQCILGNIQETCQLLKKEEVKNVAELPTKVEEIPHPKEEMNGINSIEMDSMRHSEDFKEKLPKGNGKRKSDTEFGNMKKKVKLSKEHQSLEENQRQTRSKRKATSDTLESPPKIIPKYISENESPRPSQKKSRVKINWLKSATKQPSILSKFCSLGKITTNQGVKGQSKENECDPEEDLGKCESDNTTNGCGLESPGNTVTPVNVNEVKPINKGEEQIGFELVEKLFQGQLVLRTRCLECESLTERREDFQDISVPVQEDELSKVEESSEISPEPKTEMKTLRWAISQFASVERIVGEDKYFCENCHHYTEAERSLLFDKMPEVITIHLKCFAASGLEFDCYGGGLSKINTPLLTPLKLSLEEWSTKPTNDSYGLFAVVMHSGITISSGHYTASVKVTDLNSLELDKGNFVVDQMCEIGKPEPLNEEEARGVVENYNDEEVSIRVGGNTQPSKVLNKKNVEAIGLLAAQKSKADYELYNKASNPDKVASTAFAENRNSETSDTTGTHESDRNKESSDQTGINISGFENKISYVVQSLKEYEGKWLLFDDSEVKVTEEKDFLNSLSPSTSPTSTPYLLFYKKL
Sequence of USP1 (construct USP1 (I-785, GG670, 671AA)/UAF1 (I-677)-Flag) (Q8TAF3 whole entry partner): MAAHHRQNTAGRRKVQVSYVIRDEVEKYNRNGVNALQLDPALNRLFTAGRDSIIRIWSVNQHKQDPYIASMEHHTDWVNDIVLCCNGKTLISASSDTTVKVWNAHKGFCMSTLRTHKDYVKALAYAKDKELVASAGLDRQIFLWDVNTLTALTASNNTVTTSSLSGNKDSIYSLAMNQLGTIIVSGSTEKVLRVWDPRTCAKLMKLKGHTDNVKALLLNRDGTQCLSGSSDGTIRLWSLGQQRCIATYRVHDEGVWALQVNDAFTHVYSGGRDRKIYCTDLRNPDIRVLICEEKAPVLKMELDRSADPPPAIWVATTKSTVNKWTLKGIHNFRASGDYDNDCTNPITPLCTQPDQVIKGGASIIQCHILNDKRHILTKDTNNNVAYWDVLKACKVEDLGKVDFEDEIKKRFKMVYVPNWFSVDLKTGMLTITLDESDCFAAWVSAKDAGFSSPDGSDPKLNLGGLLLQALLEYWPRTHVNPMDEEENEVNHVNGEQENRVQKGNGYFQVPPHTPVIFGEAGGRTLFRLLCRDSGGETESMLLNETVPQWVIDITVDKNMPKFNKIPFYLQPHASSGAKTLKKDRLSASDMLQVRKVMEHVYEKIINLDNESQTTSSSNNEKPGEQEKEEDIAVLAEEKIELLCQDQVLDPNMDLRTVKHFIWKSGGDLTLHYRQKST

The assay has as its target USP1 (construct USP1 (I-785, GG670, 671AA)/UAF1 (I-677)-Flag) (Homo sapiens (Human), UniProt O94782, G670A/G671A). In words: Ubiquitin-Rhodamine 110 assay for USP1 activity. The assay is classed as biochemical. The conditions noted are these: USP1/UAF1 25 pM, Ub-Rh110 25 nM, 30 min preincubation. A digest of the protocol: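 Two formats with the USP1/UAF1 complex and 25 nM ubiquitin-rhodamine 110 in pH 8.0 Tris buffer with calcium, glutathione and detergent. Single-point screening used 10 µM, 100 pM enzyme and 45 min. Inhibition was set against no-enzyme and DMSO wells.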
`COCC(C)Nc1ncccc1-c1ncc2[nH]c(=O)n(Cc3ccc(-c4nc(C(F)(F)F)cn4C)cc3)c2n1` (stereo not drawn) [Compound I-317, 2-(2-((1-methoxypropan-2-yl)amino)pyridin-3-yl)-9-(4-(1-methyl-4-(trifluoromethyl)-1H-imidazol-2-yl)benzyl)-7,9-dihydro-8H-purin-8-one]: the IC50 was in the range of 0.05 to 0.2 µM.

`CC(C)c1ccccc1-c1ncc2[nH]c(=O)n(CCC3CCN(c4cccnc4)CC3)c2n1` [Compound I-161, 2-(2-isopropylphenyl)-9-(2-(1-(pyridin-3-yl)piperidin-4-yl)ethyl)-7,9-dihydro-8H-purin-8-one]: the half-maximal inhibitory concentration (IC50) lay in the range of 0.2 to 2 µM.

As for `COC[C@@H]1CCCN1C(=O)c1ccc(Cn2c(=O)[nH]c3cnc(-c4ccccc4C(C)C)nc32)cc1` [Compound I-396, (S)-2-(2-isopropylphenyl)-9-(4-(2-(methoxymethyl)pyrrolidine-1-carbonyl)benzyl)-7,9-dihydro-8H-purin-8-one], the 50% inhibitory concentration (IC50) lay in the range of 0.2 to 2 µM.

For the compound `Cn1cc(C(F)(F)F)nc1-c1ccc(Cn2c(=O)n(C)c3cnc(-c4cccnc4N4CCOCC4)nc32)cc1` [Compound I-133, 7-methyl-9-(4-(1-methyl-4-(trifluoromethyl)-1H-imidazol-2-yl)benzyl)-2-(2-morpholinopyridin-3-yl)-7,9-dihydro-8H-purin-8-one], the IC50 lay in the range of 0.2 to 2 µM.

The compound `CC(C)c1ccccc1-c1ncc2[nH]c(=O)n(Cc3ccc(-c4ccnn4C(C)C)cc3)c2n1` [Compound I-299, 9-(4-(1-isopropyl-1H-pyrazol-5-yl)benzyl)-2-(2-isopropylphenyl)-7,9-dihydro-8H-purin-8-one] came in with an IC50 of 0.05 to 0.2 µM.

Take `CC(C)c1ccccc1-c1ncc2[nH]c(=O)n(Cc3ccc(-c4ncccn4)cc3)c2n1` [Compound I-255, 2-(2-isopropylphenyl)-9-(4-(pyrimidin-2-yl)benzyl)-7,9-dihydro-8H-purin-8-one]: the IC50 lay within 0.05 to 0.2 µM.

`CC(C)c1ccccc1-c1ncc2c(n1)n(Cc1ccc(-c3nc(C(N)=O)n(C)n3)cc1)c(=O)n2C` [Compound I-278, 3-(4-((2-(2-isopropylphenyl)-7-methyl-8-oxo-7,8-dihydro-9H-purin-9-yl)methyl)phenyl)-1-methyl-1H-1,2,4-triazole-5-carboxamide] displayed an IC50 of 0.05 to 0.2 µM.

`CC(C)c1ccccc1-c1ncc2[nH]c(=O)n(Cc3ccc(-c4nc(C5CCN(C)CC5)cn4C)cc3)c2n1` [Compound I-445, 2-(2-isopropylphenyl)-9-(4-(1-methyl-4-(1-methylpiperidin-4-yl)-1H-imidazol-2-yl)benzyl)-7,9-dihydro-8H-purin-8-one]: the IC50 is less than 0.05 µM.

`CC(C)c1ccccc1-c1ncc2c(n1)n(Cc1ccc(-c3cncn3C)cc1)c(=O)n2C` [Compound I-264, 2-(2-isopropylphenyl)-7-methyl-9-(4-(1-methyl-1H-imidazol-5-yl)benzyl)-7,9-dihydro-8H-purin-8-one]: the half-maximal inhibitory concentration (IC50) lay in the range of 0.05 to 0.2 µM.

`CC(C)c1ncccc1-c1ncc2c(n1)n(Cc1ccc(-c3nc(C(F)(F)F)cn3C)cc1)c(=O)n2CCO` [Compound I-123, 7-(2-hydroxyethyl)-2-(2-isopropylpyridin-3-yl)-9-(4-(1-methyl-4-(trifluoromethyl)-1H-imidazol-2-yl)benzyl)-7,9-dihydro-8H-purin-8-one] showed an IC50 of 0.05 to 0.2 µM.

Regarding `Cc1cc(COc2ccc(Cn3c(=O)n(C)c4cnc(-c5ccccc5C(C)C)nc43)cc2)no1` [Compound I-235, 2-(2-isopropylphenyl)-7-methyl-9-(4-((5-methylisoxazol-3-yl)methoxy)benzyl)-7,9-dihydro-8H-purin-8-one], the IC50 is 0.2 to 2 µM.

Regarding `CC(C)c1ccccc1-c1ncc2[nH]c(=O)n(Cc3ccc(C(=O)N4CCC[C@H]4CO)cc3)c2n1` [Compound I-382, (S)-9-(4-(2-(hydroxymethyl)pyrrolidine-1-carbonyl)benzyl)-2-(2-isopropylphenyl)-7,9-dihydro-8H-purin-8-one], the IC50 is 0.2 to 2 µM.

The compound `CC(C)c1ccccc1-c1ncc2[nH]c(=O)n(Cc3ccc(-c4cnn(C5CCNCC5)c4)cc3)c2n1` [Compound I-540, 2-(2-isopropylphenyl)-9-(4-(1-(piperidin-4-yl)-1H-pyrazol-4-yl)benzyl)-7,9-dihydro-8H-purin-8-one] yielded an IC50 of 0.2 to 2 µM.

With `CN(C)c1ccccc1-c1ncc2[nH]c(=O)n(Cc3ccc(-c4nc(C(F)(F)F)cn4C)cc3)c2n1` [Compound I-90, 2-(2-(dimethylamino)phenyl)-9-(4-(1-methyl-4-(trifluoromethyl)-1H-imidazol-2-yl)benzyl)-7,9-dihydro-8H-purin-8-one], the half-maximal inhibitory concentration (IC50) is less than 0.05 µM.

Take `Cn1cc(C(F)(F)F)nc1-c1ccc(Cn2c(=O)[nH]c3cnc(-c4cccnc4NC4CCOCC4)nc32)cc1` [Compound I-321, 9-(4-(1-methyl-4-(trifluoromethyl)-1H-imidazol-2-yl)benzyl)-2-(2-((tetrahydro-2H-pyran-4-yl)amino)pyridin-3-yl)-7,9-dihydro-8H-purin-8-one]: the IC50 was in the range of 0.2 to 2 µM.

Compound `CC(C)c1ccccc1-c1ncc2c(n1)n(CC1CCN(S(=O)(=O)c3nccn3C)CC1)c(=O)n2C` [Compound I-451, 2-(2-isopropylphenyl)-7-methyl-9-((1-((1-methyl-1H-imidazol-2-yl)sulfonyl)piperidin-4-yl)methyl)-7,9-dihydro-8H-purin-8-one] came in with an IC50 of 0.2 to 2 µM.

Consider `CC(C)c1ccccc1-c1ncc2c(n1)n(CC1CCN(c3nncs3)CC1)c(=O)n2C` [Compound I-492, 9-((1-(1,3,4-thiadiazol-2-yl)piperidin-4-yl)methyl)-2-(2-isopropylphenyl)-7-methyl-7,9-dihydro-8H-purin-8-one], for which the IC50 is more than 2 µM.

With `CC(C)c1ccccc1-c1ncc2[nH]c(=O)n(Cc3ccc(-c4cnccn4)cc3)c2n1` [Compound I-247, 2-(2-isopropylphenyl)-9-(4-(pyrazin-2-yl)benzyl)-7,9-dihydro-8H-purin-8-one], the IC50 fell in the range of 0.05 to 0.2 µM.

For `CC(C)c1ccccc1-c1ncc2[nH]c(=O)n(Cc3ncc(-n4cccn4)cn3)c2n1` [Compound I-509, 9-((5-(1H-pyrazol-1-yl)pyrimidin-2-yl)methyl)-2-(2-isopropylphenyl)-7,9-dihydro-8H-purin-8-one], the half-maximal inhibitory concentration (IC50) is more than 2 µM.

Compound `CC(C)c1ccccc1-c1ncc2[nH]c(=O)n(Cc3ccc(-c4nc(C(F)(F)F)cn4C4CN(C)C4)cc3)c2n1` [Compound I-447, 2-(2-isopropylphenyl)-9-(4-(1-(1-methylazetidin-3-yl)-4-(trifluoromethyl)-1H-imidazol-2-yl)benzyl)-7,9-dihydro-8H-purin-8-one] yielded an IC50 of less than 0.05 µM.

On to `CCN(CC)C(=O)c1ccc(Cn2c(=O)[nH]c3cnc(-c4ccccc4C(C)C)nc32)cc1` [Compound I-362, N,N-diethyl-4-((2-(2-isopropylphenyl)-8-oxo-7,8-dihydro-9H-purin-9-yl)methyl)benzamide], for which the half-maximal inhibitory concentration (IC50) was less than 0.05 µM.

Turning to `CC(C)c1ncccc1-c1ncc2[nH]c(=O)n([C@H](C)c3ccc(-c4nc(C(F)(F)F)cn4C)cc3)c2n1` [Compound I-79, (R)-2-(2-isopropylpyridin-3-yl)-9-(1-(4-(1-methyl-4-(trifluoromethyl)-1H-imidazol-2-yl)phenyl)ethyl)-7,9-dihydro-8H-purin-8-one], the IC50 was less than 0.05 µM.

Compound `CC(C)c1ccccc1-c1ncc2[nH]c(=O)n(Cc3ccc(C(=O)N(C)CCO)cc3)c2n1` [Compound I-376, N-(2-hydroxyethyl)-4-((2-(2-isopropylphenyl)-8-oxo-7,8-dihydro-9H-purin-9-yl)methyl)-N-methylbenzamide] displayed an IC50 of 0.2 to 2 µM.

`CC(C)c1ncccc1-c1ncc2c(n1)n(Cc1ccc(-c3nc(C(F)(F)F)cn3C)cc1)c(=O)n2C1CS(=O)(=O)C1` [Compound I-121, 7-(1,1-dioxidothietan-3-yl)-2-(2-isopropylpyridin-3-yl)-9-(4-(1-methyl-4-(trifluoromethyl)-1H-imidazol-2-yl)benzyl)-7,9-dihydro-8H-purin-8-one] registered an IC50 of 0.2 to 2 µM.

In turn, `COCCN(C)C(=O)c1ccc(Cn2c(=O)[nH]c3cnc(-c4ccccc4C(C)C)nc32)cc1` [Compound I-407, 4-((2-(2-isopropylphenyl)-8-oxo-7,8-dihydro-9H-purin-9-yl)methyl)-N-(2-methoxyethyl)-N-methylbenzamide] registered an IC50 of 0.05 to 0.2 µM.

`CC(C)c1ccccc1-c1ncc2[nH]c(=O)n(Cc3ccc(-n4ccc(C5CCCN(C)C5)n4)cc3)c2n1` (stereo not drawn) [Compound I-444, 2-(2-isopropylphenyl)-9-(4-(3-(1-methylpiperidin-3-yl)-1H-pyrazol-1-yl)benzyl)-7,9-dihydro-8H-purin-8-one] had an IC50 of less than 0.05 µM.

Compound `Cc1cc(C#N)nn1-c1ccc(Cn2c(=O)[nH]c3cnc(-c4ccccc4C(C)C)nc32)cc1` [Compound I-207, 1-(4-((2-(2-isopropylphenyl)-8-oxo-7,8-dihydro-9H-purin-9-yl)methyl)phenyl)-5-methyl-1H-pyrazole-3-carbonitrile] displayed an IC50 of less than 0.05 µM.

In turn, `CC(C)c1ccccc1-c1ncc2[nH]c(=O)n(Cc3ccc(C(=O)NCc4nccn4C)cc3)c2n1` [Compound I-360, 4-((2-(2-isopropylphenyl)-8-oxo-7,8-dihydro-9H-purin-9-yl)methyl)-N-((1-methyl-1H-imidazol-2-yl)methyl)benzamide] showed an IC50 of 0.2 to 2 µM.

`CC(C)c1c(F)cccc1-c1ncc2[nH]c(=O)n(Cc3ccc(-c4nc(C(F)(F)F)cn4C4COC4)cc3)c2n1` [Compound I-201, 2-(3-fluoro-2-isopropylphenyl)-9-(4-(1-(oxetan-3-yl)-4-(trifluoromethyl)-1H-imidazol-2-yl)benzyl)-7,9-dihydro-8H-purin-8-one] returned an IC50 of less than 0.05 µM.

The compound `COc1ccc(-c2ncc3[nH]c(=O)n(Cc4ccc(-c5nc(C(F)(F)F)cn5C)cc4)c3n2)c(C)n1` [Compound I-73, 2-(6-methoxy-2-methylpyridin-3-yl)-9-(4-(1-methyl-4-(trifluoromethyl)-1H-imidazol-2-yl)benzyl)-7,9-dihydro-8H-purin-8-one] yielded an IC50 of less than 0.05 µM.

The term IC50 denotes the concentration that inhibits the measured activity by half. A lower IC50 goes with inhibition by little substance.
